Measured values taken from paper PMC8059291 (Antiviral Research, 2021).

Molecular target: SARS-CoV-2 RdRp (Severe acute respiratory syndrome coronavirus 2, UniProt P0DTD1)
Assay: CoV-Gluc RNA levels by real-time RT-PCR after NA treatment
Type: cell-based
Details: HEK293T, 1 μM, 24 h

With `CCC(CC)COC(=O)[C@H](C)N[P@](=O)(OC[C@H]1O[C@@](C#N)(c2ccc3c(N)ncnn23)[C@H](O)[C@@H]1O)Oc1ccccc1` [Remdesivir] the “reduction of minus-strand Gluc RNA” value was 60%.
